The source made the active and inactive calls. The calls are words filed in the database; no cut-off is given here.
Key:
[1] = Induction of TNF production in anti-CD3/CD28-stimulated human PBMCs assessed as fold increase in TNF level at 1 uM after 24 hrs in presence of 0.75 ug/ml ADA by ELISA; assay type: functional, PBMC
[2] = Ratio of FC for induction of INF-gamma production in anti-CD3/CD28-stimulated human PBMCs at 1 uM after 24 hrs in presence of ZM-241385 and MRS-1754 to FC for induction of INF-gamma production in anti-CD3/CD28-stimulated human PBMCs at 1 uM after 24 hrs in presence of ZM-241385 and absence of MRS-1754; assay type: functional, PBMC
[3] = tested on: PBMC; experiment: Effect of compound on human PBMCs assessed as reduction in CTLA4 expression in naive Treg cells after 1 day by flow cytometric analysis; assay type: functional, cell-based; details: dose 0.19-6 µM
[4] = molecular target: T1, Probable G-protein coupled receptor 174 (Homo sapiens, UniProt Q9BXC1); experiment: Antagonist activity at GPR174 (unknown origin) expressed in HEK293 cells assessed as inhibition of PS-induced GPR174 signaling incubated for 15 mins by GloSensor assay; assay type: functional, cell-based; details: filed as antagonist
[5] = molecular target: T1, Probable G-protein coupled receptor 174; experiment: Inverse agonist activity at human GPR174 assessed as fold decrease in Gs signalling activity by CRA; assay type: functional; details: filed as inverse agonist
[6] = tested on: PBMC; experiment: Effect of compound on human PBMCs assessed as reduction in CTLA4 expression in memory Treg cells after 1 day by flow cytometric analysis; assay type: functional, cell-based; details: dose 0.19-6 µM
[7] = Effects of compound on anti-CD3/CD28-stimulated human PBMCs assessed as CD4-positive cells population at 10 uM after 4 hrs by flow cytometric analysis; assay type: functional, PBMC
[8] = molecular target: T1, Probable G-protein coupled receptor 174; experiment: Inverse agonist activity at GPR174 in anti-CD3/CD28-stimulated human PBMCs assessed as reduction in FoxP3-positive Helios-positive nTreg cells after 7 days by flow cytometric analysis; assay type: functional, tissue-based; details: PBMC, filed as inverse agonist, dose 3-30 µM, time 7.0 day
[9] = molecular target: T1, Probable G-protein coupled receptor 174; experiment: Inverse agonist activity at GPR174 in anti-CD3/CD28-stimulated human PBMCs assessed as increase in FoxP3-positive Helios-negative T cells at 100 uM after 3 days by flow cytometric analysis; assay type: functional, tissue-based; details: PBMC, filed as inverse agonist, time 3.0 day
[10] = tested on: PBMC; experiment: Effects of compound on INF-gamma production in anti-CD3/CD28-stimulated human PBMCs assessed as fold increase in INF-gamma level at 30 uM after 2 days by ELISA; assay type: functional; details: time 2.0 day
[11] = tested on: PBMC; experiment: Effect of compound on human PBMCs assessed as reduction in CTLA4 expression in non-Treg cells after 1 day by flow cytometric analysis; assay type: functional, cell-based; details: dose 0.19-6 µM
[12] = Effects of compound on anti-CD3/CD28-stimulated human PBMCs assessed as CD8-positive cells population at 10 uM after 2 days by flow cytometric analysis; assay type: functional, PBMC; details: time 2 day
[13] = Effects of compound on anti-CD3/CD28-stimulated human PBMCs assessed as non-T cells population at 10 uM after 2 days by flow cytometric analysis; assay type: functional, PBMC; details: time 2 day
[14] = tested on: PBMC; experiment: Effects of compound on IL-17A production in anti-CD3/CD28-stimulated human PBMCs assessed as fold decrease in IL-17A level at 30 uM after 2 days by ELISA; assay type: functional, tissue-based; details: time 2.0 day
[15] = tested on: PBMC; experiment: Effects of compound on IL-2 production in anti-CD3/CD28-stimulated human PBMCs assessed as increase in IL-2 level after 2 days by ELISA; assay type: functional, tissue-based; details: dose 1-10 µM, time 2.0 day
[16] = Effects of compound on anti-CD3/CD28-stimulated human PBMCs assessed as non-T cells population at 10 uM after 4 hrs by flow cytometric analysis; assay type: functional, PBMC
[17] = molecular target: T1, Probable G-protein coupled receptor 174; experiment: Inverse agonist activity at GPR174 in anti-CD3/CD28-stimulated human PBMCs assessed as reduction in FoxP3-positive Helios-positive nTreg cells at 100 uM after 7 days by flow cytometric analysis; assay type: functional, tissue-based; details: PBMC, filed as inverse agonist, time 7.0 day
[18] = tested on: PBMC; experiment: Effect of compound on human PBMCs assessed as reduction in AREG expression in CD4-positive T cells after 1 day by flow cytometric analysis; assay type: functional, cell-based; details: dose 1.25-5 µM
[19] = Induction of TNF production in anti-CD3/CD28-stimulated human PBMCs assessed as fold increase in TNF level at 1 to 2 uM after 24 hrs in presence of A2aR inhibitor ZM-241385 by ELISA; assay type: functional, PBMC; details: dose 1-2 µM
[20] = tested on: Splenocyte; experiment: Effects of compound on IL-2 production in anti-CD3/CD28-stimulated wild-type mouse spleenocytes assessed as fold increase in IL-2 level at 0.3 to 1 uM after 2 days; assay type: functional; details: dose 0.3-1 µM; time 2 day
[21] = tested on: PBMC; experiment: Effects of compound on IL-2 production in anti-CD3/CD28-stimulated human PBMCs assessed as increase in IL-2 level at 30 uM after 2 days by ELISA; assay type: functional, tissue-based; details: time 2.0 day
[22] = tested on: CD4+ve Th; experiment: Reduction in AREG expression in human CD4-positive T-cells at 10 uM in presence of A2aR inhibitor ZM-241385; assay type: functional
[23] = tested on: PBMC; experiment: Effect of compound on human PBMCs assessed as reduction in TGIT expression in CD8-positive T cells after 1 day by flow cytometric analysis; assay type: functional, cell-based; details: dose 1.25-5 µM
[24] = tested on: PBMC; experiment: Effects of compound on IL-10 production in anti-CD3/CD28-stimulated human PBMCs assessed as fold increase in IL-10 level at 30 uM after 2 days by ELISA; assay type: functional, tissue-based; details: time 2.0 day
[25] = Ratio of FC for induction of TNF production in anti-CD3/CD28-stimulated human PBMCs at 1 uM after 24 hrs in presence of PBF-509 and MRS-1754 to FC for induction of TNF production in anti-CD3/CD28-stimulated human PBMCs at 1 uM after 24 hrs in presence of PBF-509 and absence of MRS-1754; assay type: functional, PBMC
[26] = molecular target: T1, Probable G-protein coupled receptor 174; experiment: Inverse agonist activity at GPR174 in anti-CD3/CD28-stimulated human PBMCs assessed as reduction in FoxP3-positive Helios-positive nTreg cells at 30 uM after 7 days by flow cytometric analysis; assay type: functional, tissue-based; details: PBMC, filed as inverse agonist, time 7.0 day
[27] = tested on: PBMC; experiment: Effect of compound on human PBMCs assessed as reduction in PD-L1 expression in CD4-positive T cells after 1 day by flow cytometric analysis; assay type: functional, cell-based; details: dose 1.25-5 µM
[28] = Ratio of FC for induction of INF-gamma production in anti-CD3/CD28-stimulated human PBMCs at 1 uM after 24 hrs in presence of PBF-509 and MRS-1754 to FC for induction of INF-gamma production in anti-CD3/CD28-stimulated human PBMCs at 1 uM after 24 hrs in presence of PBF-509 and absence of MRS-1754; assay type: functional, PBMC
[29] = Induction of IL-2 production in anti-CD3/CD28-stimulated human PBMCs assessed as fold increase in IL-2 level at 1 uM after 24 hrs in presence of 0.1 uM A2aR inhibitor PBF-509 by ELISA; assay type: functional, PBMC
[30] = tested on: Splenocyte; experiment: Effects of compound on IL-2 production in anti-CD3/CD28-stimulated wild type mouse splenocytes assessed as increase in IL-2 levels at 10 uM after 48 hrs; assay type: functional, cell-based
[31] = tested on: PBMC; experiment: Effects of compound on IL-6 production in anti-CD3/CD28-stimulated human PBMCs assessed as fold increase in IL-6 level at 30 uM after 2 days by ELISA; assay type: functional, tissue-based; details: time 2.0 day

T1 sequence (Q9BXC1 whole entry): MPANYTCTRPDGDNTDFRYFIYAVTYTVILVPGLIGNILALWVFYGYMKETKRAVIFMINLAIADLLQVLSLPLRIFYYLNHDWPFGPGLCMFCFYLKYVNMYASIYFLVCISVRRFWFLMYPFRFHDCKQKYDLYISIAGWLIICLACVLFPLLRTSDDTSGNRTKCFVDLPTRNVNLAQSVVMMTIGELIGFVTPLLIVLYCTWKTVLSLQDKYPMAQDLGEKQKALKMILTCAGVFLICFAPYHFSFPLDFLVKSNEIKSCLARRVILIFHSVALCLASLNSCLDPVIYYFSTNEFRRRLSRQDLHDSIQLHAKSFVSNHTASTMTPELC

CC1CCN(c2cc(N3CCN(S(=O)(=O)c4ccccc4)CC3)c([N+](=O)[O-])cc2F)CC1
fold change (FC) [1]: 1.9
Ratio [2]: 1
Activity [3]: Dose-Dependent Effect
Activity [4]: Dose-Dependent Effect
fold change (FC) [5]: 0.2
Activity [6]: Dose-Dependent Effect
Activity [7]: 46.2%
Activity [8]: Dose-Dependent Effect
Activity [9]: Active
Activity [10]: Active
Activity [11]: Dose-Dependent Effect
Activity [12]: 27.5%
Activity [13]: 33.1%
Activity [14]: Active
Activity [15]: Dose-Dependent Effect
Activity [16]: 33.9%
Activity [17]: Active
Activity [18]: Dose-Dependent Effect
fold change (FC) [19]: 8
fold change (FC) [20]: 10
Activity [21]: Active
Activity [22]: Active
Activity [23]: Dose-Dependent Effect
Activity [24]: Active
Ratio [25]: 1
Activity [26]: Active
Activity [27]: Dose-Dependent Effect
Ratio [28]: 1
fold change (FC) [29]: 1.9
Activity [30]: Active
Activity [31]: Active

From ChEMBL document CHEMBL4806962, “Methods and Compositions for Treating Cancer” (2020)
